Test results as given in patent publication US20230416307A1, “[…] PEPTIDES FOR ENHANCING VIRAL PRODUCTION” (Synvivia, Inc., priority 2022, published 2023).
Ends that are not written are not given here.

What was measured:
Format in all cases: cell-based, adeno-associated virus
AAV2-GFP = test: Transduction efficiency (TU:VG ratio) of AAV2-GFP packaged in cells expressing a CP; settings: for transduction efficiency of AAV2-GFP produced in the presence of CP: FIG. 23, CP plasmid 0.3 ng to 100 ng, versus control without CP
Source text: AAV2-GFP were harvested and assayed for biological and physical titer as described in FIG. 20
FIG. 24. […] This figure depicts the raw flow cytometry data used to determine the biological titer of AAV samples. This is an example of the data that was used to determine the biological titers in FIG. 23. The X-axis of each graph represents the forward light scattering (FSC) from flow cytometry. The Y-axis represents the GFP intensity of each cell. A 1000-fold dilution of AAV2-GFP particles produced either in the presence (A) or absence (B) of cyclic peptide were used to transduce HEK293 cells. A 1000-fold dilution of the preparation was used (e.g., without physical titer normalization) to ensure a direct, batch-to-batch comparison of the impact of cyclic peptide on viral packaging performance.
As used herein, the term “transduction efficiency” refers to the effectiveness (efficiency) of viral particles in delivering their genetic payload to the target cells. This efficiency may be represented by the transducing units to vector genomes ratio (TU:VG). Viral formulations with enhanced transduction efficiency can achieve greater numbers of DNA delivery events for the same number of DNA-containing viral particles. […] Enhanced transduction efficiency may be achieved by optimizing the cellular environment for viral production, leading to viral particles with improved capsid structure, viral particle biochemistry, or viral particle assembly. Increasing transduction efficiency refers to improvements in the TU:VG ratio, which encompasses both infectivity and biological titer.
• 1. A 100-mm cell culture dish was reseeded with 4.0×10^6 Hek293T cells in high glucose DMEM culture medium supplemented with 10% FBS. • 2. […] A jetOPTIMUS DNA transfection reagent i used during the transfection protocol (from Polyplus). • 3. 12-16 hours after transfection, media was replaced with low glucose DMEM culture medium supplemented with 1% FBS, 1×Glutamax, 10 mM HEPES, and 0.075% sodium bicarbonate. • 4. Cells and media were harvested 4 days after transfection and frozen in 1 mL aliquots. • 5. Frozen aliquots were thawed and lysed using AAVMax Lysis Reagent (Life Technologies, USA, A50520). 100 uL of AAVMax Lysis buffer was added to 900 uL of cell and media. Mixture was incubated for 2 hours with rotating. Debris was pelleted at 5,000xg for 15 minutes. AAV containing supernatant was collected. • 6. The physical and biological titers of the harvested AAV samples were determined by qPCR and biological viral titer measurement as described in Example 1.
Full, but non-functional viral particles represent a major manufacturing challenge for AAV gene therapies. At present, there is no process capable of purifying the functional viral particles from the full, but non-functional fraction.

AAV2 [1] = test: Physical titer (qPCR or ddPCR, VG/ml) of AAVs packaged in cells expressing a CP; settings: FIG. 20A; GFP payload; cells expressing individual CP relative to no CP expression
Protocol: (§1) FIG. 20. Exemplary bar charts showing fold improvement of physical titer and/or biological titer for various CPs. […] The payload being packaged during AAV production is GFP only. The cyclic peptide generator is located on a separate DNA, is only expressed by the host cell, and is not able to be packaged. Physical titer is quantified by qPCR or ddPCR and expressed as viral genomes produced per mL (VG/ml) of AAV packaging cells and media. […] Biological titer is measured in vitro by transducing a standardized number of wild-type (WT) mammalian (HEK293) cells with diluted AAVs harvested after packaging with or without CP expression. The transductants are identified by GFP payload expression. The fold improvement is calculated by dividing the percentage of GFP expressing (transduced) cells after transduction with AAVs packaged in cells expressing a CP by the percentage of GFP expressing (transduced) cells after transduction with AAVs packaged in cells that are not expressing a CP.
Primers binding the eGFP reporter protein were used to measure the virus titer with quantitative polymerase chain reaction (qPCR). Before releasing the viral DNA from the particles, all extra-viral DNA was removed by digestion with DNase I. Then, the viral DNA was released by alkaline lysis. The qPCR was performed using the PowerUp™ SYBR™ Green Master Mix (Applied Biosystems), and primers against the zsGreen obtained from Integrated DNA Technologies. The extracted viral DNA and a serial dilution of a viral plasmid containing z as a standard were measured using the CFX96 Touch Real-Time PCR Detection System and the CFX Maestro Software (Bio-Rad, Hercules, CA).
(§2) 50-70% confluent HEK-293T cells (˜10^6 total cells) grown in DMEM supplemented with 5% FBS were quadruple transfected with pHelper Vector, pAAV-ZsGreenl Vector, AAVpro® Packaging Rep-Cap Plasmid (AAV2), and pTargeT Mammalian Expression Vector with cloned individual cyclic peptide generator of interest in a 1:1:1:1 molar ratio normalized to the plasmid size using JetOptimus Transfection Reagent in 100 mm TC treated petri dish. AAV preparation is conducted as described above. Biological viral titer measurement is performed as described above.
(§3) • 1. A 100-mm cell culture dish was reseeded with 4.0×10^6 Hek293T cells in high glucose DMEM culture medium supplemented with 10% FBS. • 2. One day after plating, the cells (70-80% confluence) were co-transfected with 3.2ug pRC2 which encodes Rep and Cap genes (SEQ ID NO: 1-7), 4.6ug pHelper which encodes Adenovirus helper genes (SEQ ID NO: 16-19, 22, 23), 2.2ug payload vector, and 1-100ng engineered cyclic peptide expression vector (if using). A jetOPTIMUS DNA transfection reagent i used during the transfection protocol (from Polyplus). • 3. 12-16 hours after transfection, media was replaced with low glucose DMEM culture medium supplemented with 1% FBS, 1×Glutamax, 10 mM HEPES, and 0.075% sodium bicarbonate. • 4. Cells and media were harvested 4 days after transfection and frozen in 1 mL aliquots. • 5. Frozen aliquots were thawed and lysed using AAVMax Lysis Reagent (Life Technologies, USA, A50520). 100 uL of AAVMax Lysis buffer was added to 900 uL of cell and media. Mixture was incubated for 2 hours with rotating. Debris was pelleted at 5,000xg for 15 minutes. AAV containing supernatant was collected. • 6. The physical and biological titers of the harvested AAV samples were determined by qPCR and biological viral titer measurement as described in Example 1.
The physical titer fold improvement was calculated by dividing the physical titer of AAVs packaged in cells expressing a CP by the physical titer of cells that are not expressing a CP.

AAV2 [2] = test: Biological titer of AAVs packaged in cells expressing a CP (GFP-positive transduced HEK293 cells); settings: FIG. 20B; HEK293 transduction; cells expressing individual CP relative to no CP expression
Protocol: as §1
HEK-293T were reseeded in a 24 well tissue culture treated plate at a density of 1-2*10^4 cells/well in 0.5 mL of DMEM with 10% FBS. Cells were cultured overnight. 10-fold serial dilutions of prepared AAV2 particle solutions using DMEM with 10% FBS were used to infect the HEK-293T cells. Dilutions ranged from 1:10 to 1:10000. On Day 3 after infection, cells were detached using Trypsin/EDTA and analyzed for eGFP expression by image-based cytometry.
as §2, §3
The fold improvement in biological titer was calculated by dividing the percentage of GFP expressing (transduced) cells after transduction with AAVs packaged in cells expressing a CP by the percentage of GFP expressing (transduced) cells after transduction with AAVs packaged in cells that are not expressing a CP.

## CYNHAR: engineered cyclic peptide, SEQ ID NO: 35, corresponds to generator plasmid T2851-8 (cyclic; Cyclic peptide that was found to increase or decrease AAV viral titer in a dose-responsive manner.)
AAV2-GFP; FIG. 21 legend, data not shown
  increased transduction efficiency (TU:VG ratio): ~2.4 ×

## CSDPSA: engineered cyclic peptide, SEQ ID NO: 56 (cyclic; Cyclic peptide that was found to enhance AAV viral titer; We observed log10 enrichment score of 3.653, mean of 76 experimental replicates. We observed excellent mean log10 enrichment scores for this cyclic peptide across multiple AAV serotypes: AAV1_3.5; AAV2_4.0; AAV5_3.0; AAV6_3.4. Cyclo-CSDPSA possesses the following motifs: POL_HYD_POL-motif; NEG_HYD_POL-motif; POL_NEG_HYD-motif; POL_POL_NEG-m)
AAV2 [1]
  fold improvement in physical titer of AAVs: fold improvements in physical titer
AAV2 [2]
  fold improvement in biological titer of AAVs: fold improvements in biological titer

## CSESCP: engineered cyclic peptide, SEQ ID NO: 57 (cyclic; Cyclic peptide that was found to enhance AAV viral titer)
AAV2 [1]
  fold improvement in physical titer of AAVs: fold improvements in physical titer
AAV2 [2]
  fold improvement in biological titer of AAVs: fold improvements in biological titer

## CRVSY: engineered cyclic peptide, SEQ ID NO: 41 (also: cyclic, closure not given here)
AAV2-GFP
  transduction efficiency of AAV2-GFP produced in the presence of CP: improvements in transduction efficiency

## CYPLH: engineered cyclic peptide, SEQ ID NO: 60 (cyclic; Cyclic peptide that was found to enhance AAV viral titer)
AAV2 [1]
  fold improvement in physical titer of AAVs: fold improvements in physical titer
AAV2 [2]
  fold improvement in biological titer of AAVs: fold improvements in biological titer

## CQVFQL: engineered cyclic peptide, SEQ ID NO: 42 (also: cyclic, closure not given here)
AAV2-GFP
  transduction efficiency of AAV2-GFP produced in the presence of CP: improvements in transduction efficiency

## CYVTTD: engineered cyclic peptide, SEQ ID NO: 62 (cyclic; Cyclic peptide that was found to enhance AAV viral titer; We observed log10 enrichment score of 3.986, mean of 70 experimental replicates. We observed excellent mean log10 enrichment scores for this cyclic peptide across multiple AAV serotypes: AAV1_4.2; AAV2_4.1; AAV5_3.6; AAV6_3.9. Cyclo-CYVTTD possesses the following motifs: ARO_HYD_POL-motif; POL_POL_NEG-motif; NEG_POL_ARO-motif.)
AAV2 [1]
  fold improvement in physical titer of AAVs: fold improvements in physical titer
AAV2 [2]
  fold improvement in biological titer of AAVs: fold improvements in biological titer

## CTHKVS: engineered cyclic peptide, SEQ ID NO: 38 (also: cyclic, closure not given here)
AAV2-GFP
  transduction efficiency of AAV2-GFP produced in the presence of CP: improvements in transduction efficiency

## CQVTRM: engineered cyclic peptide, SEQ ID NO: 55 (cyclic; Cyclic peptide that was found to enhance AAV viral titer; We observed log10 enrichment score of 3.258, mean of 74 experimental replicates. We observed excellent mean log10 enrichment scores for this cyclic peptide across multiple AAV serotypes: AAV1_3.4; AAV2_3.3; AAV5_3.2; AAV6_3.1. Cyclo-CQVTRM possesses the following motifs: POL_HYD_POL-motif; POL_POL_HYD-motif; POS_HYD_POL-motif.)
AAV2 [1]
  fold improvement in physical titer of AAVs: fold improvements in physical titer
AAV2 [2]
  fold improvement in biological titer of AAVs: fold improvements in biological titer

## CCRPH: engineered cyclic peptide, printed as SEQ ID NO: 37
AAV2-GFP
  transduction efficiency of AAV2-GFP produced in the presence of CP: improvements in transduction efficiency
